Laboratory results: PMC8605023 (Nature Communications, 2021)
Ends that are not written are not given here. Peptide text beside a SMILES is read from it. * marks the point of attachment. FITC = O=C1OC2(c3ccc(O)cc3Oc3cc(O)ccc32)c2ccc(NC(=S)*)cc21

Tests used:
AP2M1 [1] = molecular target: T1, AP2M1 (Homo sapiens, UniProt Q96CW1); assay: FP saturation (direct) binding of FITC-labeled probe peptide, AP2M1
T1 construct: His-GST (cleaved yes); made in house; host or cells: E. coli BL21-Gold(DE3)
T1 sequence (Q96CW1 160-435 limits assumed): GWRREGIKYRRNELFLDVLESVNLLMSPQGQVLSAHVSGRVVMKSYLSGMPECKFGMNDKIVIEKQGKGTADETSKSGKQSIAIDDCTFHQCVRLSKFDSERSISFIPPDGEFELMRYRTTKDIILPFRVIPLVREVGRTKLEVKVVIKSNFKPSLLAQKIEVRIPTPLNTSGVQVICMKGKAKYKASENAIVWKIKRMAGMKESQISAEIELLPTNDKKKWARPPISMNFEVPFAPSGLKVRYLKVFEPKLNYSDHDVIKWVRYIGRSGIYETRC
Experimental: (§1) Proteins used for FP affinity measurements were expressed and purified in larger-scale bacterical cultures (at least 8 × 500 mL 2YT). His-GST-tagged G3BP1 and G3BP2 were used directly for affinity measurements after dialysis.
(§2) FP experiments were carried out using a SpectraMax iD5 multimode microplate reader (Molecular Devices) using a black half area 96-well plate (Corning, USA #3993) with a total volume of 50 μL. The settings used were 485 nm for excitation and 535 nm for emission.
(§3) Peptides were from GeneCust (France) with a purity of over 95%. FITC-labeled peptides were dissolved in dimethyl sulfoxide (DMSO). Unlabelled peptides were dissolved in phosphate buffer (50 mM phosphate buffer pH 7.5 and 1–2 mM reducing agent DTT or TCEP). All measurements were performed at least in triplicates. For saturation binding experiment, proteins were serially diluted in the plate with phosphate buffer in a volume 25 μL, and then supplemented with a master mix of 10 nM FITC-labeled peptide in phosphate buffer. […] Twenty-five mitroliter of this displacement master mix was added to unlabeled peptides, which were serially diluted in the plate in 25 μL phosphate buffer.
(§4) The data were analysed with GraphPad Prism version 9.0.0 for MacOS (GraphPad Software, San Diego, California USA, www.graphpad.com). […]

[2] = molecular target: FERM domain of Ezrin (EZR) (Homo sapiens, UniProt P15311); assay: biochemical; format: binding
FERM domain of Ezrin (EZR), sequence (P15311 2-296 limits assumed): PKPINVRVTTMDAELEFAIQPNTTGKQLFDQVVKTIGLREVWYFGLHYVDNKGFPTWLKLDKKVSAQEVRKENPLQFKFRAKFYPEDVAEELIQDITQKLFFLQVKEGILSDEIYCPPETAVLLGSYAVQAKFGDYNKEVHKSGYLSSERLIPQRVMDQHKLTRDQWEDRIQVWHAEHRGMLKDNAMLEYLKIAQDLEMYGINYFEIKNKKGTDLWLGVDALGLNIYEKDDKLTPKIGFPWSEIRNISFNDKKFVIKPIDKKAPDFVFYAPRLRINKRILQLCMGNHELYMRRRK

AP2M1 [3] = molecular target: T1, AP2M1; assay: biochemical; format: binding
MAP1LC3C [4] = molecular target: T2, MAP1LC3C (Homo sapiens, UniProt Q9BXW4); assay: biochemical; format: binding
T2 construct: His-GST (cleaved yes); made in house; host or cells: E. coli BL21-Gold(DE3)
T2 sequence (Q9BXW4 1-126 limits assumed): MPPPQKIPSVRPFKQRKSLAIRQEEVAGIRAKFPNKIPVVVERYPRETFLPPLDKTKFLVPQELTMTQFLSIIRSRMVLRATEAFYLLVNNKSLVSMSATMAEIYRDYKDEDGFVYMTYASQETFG

USP7 [5] = molecular target: T3, USP7 (Homo sapiens, UniProt Q93009); assay: biochemical; format: binding
T3 construct: His-GST (cleaved yes); made in house; host or cells: E. coli BL21-Gold(DE3)
T3 sequence (Q93009 63-205 limits assumed): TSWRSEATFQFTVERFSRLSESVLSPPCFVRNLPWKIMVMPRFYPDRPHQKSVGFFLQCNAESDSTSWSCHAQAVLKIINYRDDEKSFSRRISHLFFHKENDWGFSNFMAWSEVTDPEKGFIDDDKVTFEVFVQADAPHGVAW

MAP1LC3C [6] = molecular target: T2, MAP1LC3C; assay: FP saturation (direct) binding of FITC-labeled probe peptide, MAP1LC3C
Experimental: as §1, §2, §3, §4

USP7 [7] = molecular target: T3, USP7; assay: FP saturation (direct) binding of FITC-labeled probe peptide, USP7; details: Kd direct binding of 10 nM FITC probe, saturation with protein
Experimental: as §1, §2, §3, §4

`CC(C)C[C@H](NC(=O)[C@H](CCCNC(=N)N)NC(=O)[C@H](CCC(N)=O)NC(=O)[C@H](Cc1ccc(O)cc1)NC(=O)[C@H](CCC(=O)O)NC(=O)[C@@H](NC(=O)[C@H](CC(=O)O)NC(=O)[C@H](Cc1ccccc1)NC(=S)Nc1ccc2c(c1)C(=O)OC21c2ccc(O)cc2Oc2cc(O)ccc21)[C@@H](C)O)C(=O)N[C@@H](CCC(=O)O)C(=O)N[C@@H](C)C(=O)N[C@@H](CO)C(=O)O` [ATG9A 4-14 Human] (HELM PEPTIDE1{[O=C1OC2(c3ccc(O)cc3Oc3cc(O)ccc32)c2ccc(NC(=S)[*:2])cc21].F.D.T.E.Y.Q.R.L.E.A.S}$$$$V2.0) gave a Kd (AP2M1 [1]) of 1.1 ± 0.03 µM.
`CC[C@H](C)[C@H](NC(=O)[C@H](CC(C)C)NC(=O)[C@@H](NC(=O)CNC(=O)[C@@H](NC(=O)[C@H](CCC(=O)O)NC(=O)[C@H](CCC(=O)O)NC(=O)[C@H](CO)NC(=O)[C@@H](NC(=O)[C@H](Cc1ccccc1)NC(=O)[C@H](CO)NC(=O)[C@H](Cc1ccc(O)cc1)NC(=O)[C@@H](N)CCSC)C(C)C)[C@@H](C)O)[C@@H](C)O)C(=O)N[C@H](C(=O)N[C@@H](CC(N)=O)C(=O)N[C@@H](CO)C(=O)O)C(C)C` [E 1-16 Sars-CoV2/Sars-CoV] (H-MYSFVSEETGTLIVNS-OH) gave a Kd [2] of 57.9 ± 0.4 µM.
For `CC[C@H](C)[C@H](NC(=O)[C@H](Cc1c[nH]cn1)NC(=O)[C@H](CCCCN)NC(=O)[C@H](CC(N)=O)NC(=O)[C@H](CC(C)C)NC(C)=O)C(=O)N[C@@H](CC(=O)O)C(=O)N[C@@H](C)C(=O)N[C@@H](Cc1ccc(O)cc1)C(=O)N[C@@H](CCCCN)C(=O)N[C@H](C(=O)N[C@@H](Cc1ccccc1)C(=O)N1CCC[C@H]1C(=O)N1CCC[C@H]1C(=O)N[C@H](C(=O)N[C@@H](CCC(=O)O)C(N)=O)[C@@H](C)O)[C@@H](C)O` [N 353-367 Sars-CoV2/Sars-CoV], the IC50 (AP2M1 [3]) was 1530 µM and the Ki (AP2M1 [3]) was 530 µM.
With `CC(C)C[C@H](NC(=O)[C@@H](NC(=O)[C@H](CC(=O)O)NC(=O)[C@H](Cc1ccccc1)NC(=O)[C@H](CO)NC(=O)[C@H](CC(N)=O)NC(=O)[C@H](CO)NC(=O)[C@@H](NC(=O)[C@H](CCC(=O)O)NC(=O)[C@@H](N)C(C)C)[C@@H](C)O)C(C)C)C(=O)N[C@@H](CCCCN)C(=O)N[C@@H](CO)C(=O)N[C@@H](CCC(=O)O)C(=O)N[C@@H](CC(=O)O)C(=O)N[C@@H](C)C(=O)N[C@@H](CCC(N)=O)C(=O)N[C@@H](Cc1ccc(O)cc1)C(=O)O` [NSP3 2019-2034 Sars-CoV2] the Kd [2] was 19.8 ± 0.4 µM, the IC50 (MAP1LC3C [4]) was 1530 µM and the Kd (MAP1LC3C [4]) was 210 ± 18 µM. It also gave a Ki (MAP1LC3C [4]) of 210 µM, an IC50 (USP7 [5]) of 270 µM and a Kd (USP7 [5]) of 37 ± 0.2 µM. For the same molecule, the Ki (USP7 [5]) was 37 µM.
Molecule `CC[C@H](C)[C@H](NC(=O)[C@H](CCSC)NC(=O)[C@H](CO)NC(C)=O)C(=O)N[C@@H](CCC(=O)O)C(=O)N[C@@H](CC(=O)O)C(=O)N[C@H](C(=O)N[C@@H](CC(=O)O)C(=O)N[C@@H](Cc1ccc(O)cc1)C(=O)N[C@H](C(=O)N1CCC[C@H]1C(=O)N[C@@H](CC(C)C)C(=O)N[C@@H](CCCCN)C(=O)N[C@@H](CO)C(=O)N[C@@H](C)C(=O)N[C@H](C(N)=O)C(C)C)C(C)C)[C@@H](C)CC` [NSP14 6498-6512 Mers] has a Kd (AP2M1 [3]) of 3 ± 0.1 µM and a Ki (AP2M1 [3]) of 3 µM.
`CC(C)C[C@H](NC(=O)[C@H](Cc1c[nH]cn1)NC(=O)[C@@H](NC(=O)[C@H](Cc1c[nH]c2ccccc12)NC(=O)[C@H](CC(=O)O)NC(=O)[C@H](CC(=O)O)NC(=O)[C@H](CC(=O)O)NC(=S)Nc1ccc2c(c1)C(=O)OC21c2ccc(O)cc2Oc2cc(O)ccc21)[C@@H](C)O)C(=O)N[C@@H](CO)C(=O)N[C@@H](CO)C(=O)N[C@@H](CCCCN)C(N)=O` [SQSTM1 335-344 Human] showed a Kd (MAP1LC3C [6]) of 1.1 ± 0.03 µM.
In the case of “{FITC}-DYSQPSTSSSIIY [MDM2 393-414 Human]”, the “Ki displacement/Kd direct binding” value (USP7 [7]) is reported as 0.49 µM.
